The results in this text go back to patent publication US20260256763A1, “Aromatic Amide Derivative, And Preparation Method Therefor And Use Thereof” (Zhejiang Hisun Pharmaceutical Co., Ltd., priority 2023, published 2026).

In data set [1] the target is T1, recombinant human KIF18A (Homo sapiens, UniProt Q8NI77).
T1 construct: purchased GenScript
Kind of data set: Inhibition on KIF18A enzyme activity (ADP-Glo). Format: biochemical. The settings on record: recombinant human KIF18A 100 nM, ATP 60 μM. The protocol:
Inhibition degrees of the compounds of the present invention on recombinant human KIF18A enzyme activity in vitro were determined by the following method. An ADP-Glo™ Kinase Assay kit (article number V9102) from Promega Company was used in this method. Detailed experimental operation can be referred to the instruction of the kit.
The reaction was carried out in a 384-well microplate. The test compound and the recombinant human KIF18A protein (final concentration of 100 nM, entrusted to GenScript for expression) were added into the wells and incubated at room temperature for 20 minutes, and subsequently, ATP solution (component V915A from the ADP-Glo™ Kinase Assay kit, final concentration of 60 μM) was added to the reaction solution and the obtained system was incubated at room temperature for 20 minutes. Subsequently, 5 μL of ADP-Glo Reagent was added to the reaction system and the obtained system was incubated at room temperature for 50 minutes. Then, 10 μL of Kinase Detection Reagent was added to the reaction system, and the obtained system was incubated at room temperature for 30 minutes. After the incubation was ended, a chemiluminiscence intensity value of each well was determined by a microplate reader in a Luminescence mode.
Background: In ADP-Glo the light output rises with the ADP produced.

Data set [2] can be described thus: Pharmacokinetic testing in mice. Format: in vivo. The settings on record: male, mouse, ICR mice, plasma; for half-life / Cmax: 10 mg/kg, oral administration (10 mg/mL); for half-life: read-out: Half-life period T½ (converted); for Cmax: read-out: Plasma concentration Cmax; for AUC(0-inf): oral administration (10 mg/kg), read-out: Area under the curve AUC0-∞. The protocol: ICR mice were taken as test animals, and intragastrically administered with a control compound AMG650 and compounds 1, 18 and 29 of the present invention, and then drug concentrations in plasma at different moments were determined by an LC/MS/MS method, so as to study pharmacokinetic characteristics of the compounds of the present invention in the mice.
Control compound AMG650, and Compounds 1, 18 and 29.
ICR mice, male, 27.3-30.3 g, purchased from Vital River Laboratory Animal Technology Co., Ltd.
A proper amount of to-be-tested compound was weighed, proper amounts of DMA (N,N-dimethylacetamide), CrEL (polyoxyethylene 35 castor oil) and 5% GS (5% glucose injection) were added in sequence, and the obtained system was evenly mixed by ultrasonic vortex to prepare a 1 mg/mL preparation, wherein DMA, CrEL and 5% GS=10:10:80 (v:v:v).
ICR mice in each to-be-tested compound injection group (9 mice in each group) were fasted overnight and then intragastrically administered with the compound (PO, an administration dosage of the compound was 10 mg/kg and an administration volume of the compound was 10 mL/kg), and were fed 4 hours after administration.
0.25 hours, 0.5 hours, 1 hour, 2 hours, 4 hours, 8 hours, 10 hours and 24 hours before and after administration, about […] of blood was collected through an orbit, and a complete blood sample was placed in an EDTA-K2-containing anticoagulation tube. The collected blood sample was placed on ice, and plasma was centrifugally separated (centrifugation conditions: 1500 g, 10 minutes). The collected plasma was stored at −40~−20° C. before analysis.
A content of the to-be-tested compound in the plasma of the mice after intragastric administration was determined by LC-MS/MS.

The subject of data set [3] is HT-29 cells. Kind of data set: Inhibition on HT-29 cell proliferation (CellTiter-Glo). Format: cell-based. The settings on record: Homo sapiens, HT-29 cells (TP53 R273H mutation), 120 hours. The protocol:
Influences of the compounds of the present invention on HT-29 cell proliferation were determined by the following method. HT-29 cells (containing TP53 R273H mutation) were purchased from the Cell Bank of Shanghai Institute of Biochemistry and Cell Biology, Chinese Academy of Sciences, and cultured in a McCOY's 5A culture medium containing 10% fetal bovine serum, 100 U penicillin and 100 μg/mL streptomycin. A cell viability was determined by a CellTiter-Glo® Luminescent Cell Viability Assay kit (Promega, article number G7573).
(§1) An experimental method was operated according to steps in the instruction of the kit, which was briefly described as follows: a test compound was dissolved in DMSO first to prepare a 10 mM stock solution, then the stock solution was diluted with the above McCOY's 5A culture medium to prepare a test sample, and a final concentration of the compound was in a range of 1000 nM-0.015 nM. Cells in a logarithmic growth phase were inoculated into a 96-well cell culture plate at a density of 1000 cells per well, cultured in a 5% CO2 incubator at 37° C. overnight, and then the test compound was added to continuously culture for 120 hours. After the culture was ended, 50 µL of CellTiter-Glo detection solution was added to each well, the plates were shaken for 5 minutes, and then allowed to stand for 10 minutes, and subsequently, a luminous value of each well of sample was read by a microplate reader in a Luminescence mode. By comparing with a numerical value of a control group (0.3% DMSO), a percentage inhibition rate of the compound at each concentration was calculated, and then nonlinear regression analysis was carried out based on concentration logarithm-inhibition rate of the compound in GraphPad Prism 5 software, so as to obtain an IC50 value of the compound in inhibition on cell proliferation, which are shown in Table 2.

Data set [4] has as its system OVCAR-3 cells. Kind of data set: Inhibition on OVCAR-3 cell proliferation (CellTiter-Glo). Format: cell-based. The settings on record: Homo sapiens, OVCAR-3 cells (TP53 R248Q mutation), 72 hours. The protocol:
Influences of the compounds of the present invention on OVCAR-3 cell proliferation were determined by the following method. OVCAR-3 cells (containing TP53 R248Q mutation) were purchased from the Cell Bank of Shanghai Institute of Biochemistry and Cell Biology, Chinese Academy of Sciences, and cultured in an RPMI 1640 culture medium containing […], 100 U penicillin and 100 μg/mL streptomycin. A cell viability was determined by a CellTiter-Glo® Luminescent Cell Viability Assay kit (Promega, article number G7573).
as §1, with “RPMI 1640” for “McCOY's 5A”, “72” for “120”, “μL” for “µL”, “1.” for “2.”
In general terms: In ATP-based viability assays light output follows the ATP content of the culture.

T1 sequence (Q8NI77 whole entry): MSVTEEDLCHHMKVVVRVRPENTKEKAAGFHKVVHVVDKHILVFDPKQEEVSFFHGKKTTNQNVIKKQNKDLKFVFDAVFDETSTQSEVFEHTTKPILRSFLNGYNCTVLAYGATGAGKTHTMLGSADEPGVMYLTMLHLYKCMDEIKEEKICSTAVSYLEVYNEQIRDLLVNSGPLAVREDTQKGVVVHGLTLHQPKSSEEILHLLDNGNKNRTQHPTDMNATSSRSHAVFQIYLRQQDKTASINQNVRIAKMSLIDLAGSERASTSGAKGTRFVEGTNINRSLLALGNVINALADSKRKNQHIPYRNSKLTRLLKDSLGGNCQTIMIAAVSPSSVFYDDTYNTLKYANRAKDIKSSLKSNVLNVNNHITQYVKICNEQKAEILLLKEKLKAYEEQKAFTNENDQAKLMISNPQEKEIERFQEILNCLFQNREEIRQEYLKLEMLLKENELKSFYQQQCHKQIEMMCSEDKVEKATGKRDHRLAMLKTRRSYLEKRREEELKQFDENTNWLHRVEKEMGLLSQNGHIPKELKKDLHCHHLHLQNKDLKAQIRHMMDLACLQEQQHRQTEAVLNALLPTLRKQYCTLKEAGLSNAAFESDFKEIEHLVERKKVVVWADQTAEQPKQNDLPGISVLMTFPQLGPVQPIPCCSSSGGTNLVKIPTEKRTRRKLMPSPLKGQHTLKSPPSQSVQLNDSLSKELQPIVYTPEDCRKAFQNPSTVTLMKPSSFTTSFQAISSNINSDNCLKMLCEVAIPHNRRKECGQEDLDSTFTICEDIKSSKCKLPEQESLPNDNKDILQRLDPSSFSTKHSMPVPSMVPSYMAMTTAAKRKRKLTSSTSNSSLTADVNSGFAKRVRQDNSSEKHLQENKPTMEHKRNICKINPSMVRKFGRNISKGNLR
T1 sequence (P68363 whole entry partner): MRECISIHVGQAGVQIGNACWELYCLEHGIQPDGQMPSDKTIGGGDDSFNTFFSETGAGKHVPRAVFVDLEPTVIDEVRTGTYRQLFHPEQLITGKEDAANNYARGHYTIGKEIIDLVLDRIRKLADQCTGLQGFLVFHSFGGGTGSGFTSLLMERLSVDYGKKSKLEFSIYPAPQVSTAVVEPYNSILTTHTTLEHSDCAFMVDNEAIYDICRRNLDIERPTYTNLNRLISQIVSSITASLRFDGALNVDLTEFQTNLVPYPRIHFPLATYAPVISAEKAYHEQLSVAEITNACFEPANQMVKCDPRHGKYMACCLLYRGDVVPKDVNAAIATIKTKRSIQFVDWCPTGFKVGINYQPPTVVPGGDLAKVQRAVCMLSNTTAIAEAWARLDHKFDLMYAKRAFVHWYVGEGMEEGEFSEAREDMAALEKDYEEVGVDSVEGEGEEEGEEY
T1 sequence (Q9BVA1 whole entry partner): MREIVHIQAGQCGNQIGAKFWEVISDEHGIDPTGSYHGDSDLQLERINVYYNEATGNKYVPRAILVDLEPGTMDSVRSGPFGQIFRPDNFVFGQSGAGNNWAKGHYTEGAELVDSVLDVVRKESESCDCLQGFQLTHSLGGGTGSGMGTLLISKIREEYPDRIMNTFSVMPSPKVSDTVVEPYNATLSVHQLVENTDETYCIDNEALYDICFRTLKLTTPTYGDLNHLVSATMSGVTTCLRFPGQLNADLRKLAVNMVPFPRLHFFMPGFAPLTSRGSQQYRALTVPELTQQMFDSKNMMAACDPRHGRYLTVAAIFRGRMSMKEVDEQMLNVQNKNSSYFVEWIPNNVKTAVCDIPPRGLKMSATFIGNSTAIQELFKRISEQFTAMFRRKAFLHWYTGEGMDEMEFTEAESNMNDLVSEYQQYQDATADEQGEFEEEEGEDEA

As for `O=C(Nc1cc2c(c(N3CCC(F)(F)CC3)c1)OCC2)c1ccc(NS(=O)(=O)CCO)cc1N1CCC2(CC1)CC2` [Example 29, N-(7-(4,4-difluoropiperidin-1-yl)-2,3-dihydrobenzofuran-5-yl)-4-((2-hydroxyethyl)sulfamine)-2-(6-azaspiro[2.5]octan-6-yl)benzamide], in data set [1], the 50% inhibitory concentration (IC50) (in general, the concentration at which inhibition is half-maximal) came out at 316 nM. Besides, in data set [2], the half-life (as a rule, the time needed for the level to fall by half in the phase considered) is 1.24 h; the Cmax amounted to 6960 ng/mL; the AUC(0-inf) came out at 25900 ng·h/mL.

In data set [3], `CCS(=O)(=O)Nc1ccc(C(=O)Nc2cc(N3CCC(F)(F)CC3)c3nn(C)cc3c2)c(N2CCC3(CC2)CC3)c1` [Example 18, N-(7-(4,4-difluoropiperidin-1-yl)-2-methyl-2H-indazol-5-yl)-4-(ethylsulfonamido)-2-(6-azaspiro[2.5]octan-6-yl)benzamide] returned a 50% inhibitory concentration (IC50) of 7.7 nM. In data set [2], the half-life is 5.2 h, the Cmax is 3030 ng/mL and the AUC(0-inf) worked out at 45900 ng·h/mL. In data set [4], this compound came in with an IC50 of 3.3 nM.
